Test results as given in US6803379B2, “PHARMACOLOGICAL AGENTS AND METHODS OF TREATMENT THAT INACTIVATE PATHOGENIC PROKARYOTIC AND EUKARYOTIC CELLS AND VIRUSES BY ATTACKING HIGHLY CONSERVED DOMAINS IN STRUCTURAL METALLOPROTEIN AND METALLOENZYME TARGETS” (priority 2002, dated 2004).
Counter-ions that a name gives are not always drawn. Like-named read-outs stand apart in the source and are kept apart here.

Experiments:
virally infected cells = test: Activity against virally infected cells relative to 2-thiophenecarboxylic acid; assay type: cell-based
[1] = tested on: cancer cells in tissue culture; test: Activity against cancer cells in tissue culture relative to 2-thiophenecarboxylic acid
CHO cells [2] = tested on: CHO cells
CHO cells [3] = test: Growth of CHO cells (cell counts at 24, 48 and 72 h); conditions: for inhibition at 3000 µM / inhibition at 10000 µM / inhibition at 1000 µM: Cricetulus griseus, CHO, read-out: growth inhibition; for time within which growth was strongly inhibited: 1 mM and 3 mM
Description: Cells were plated at 1.5×10^5 cells/60-mm dish; 24 hours later, the medium was removed, and new media with or without 0.05 to 10 mM final concentrations of 2-Furoic acid were added. Cell counts were determined at 24, 48 and 72 h after the addition of 2-Furoic acid; each point is the average of triplicate measurements from 3 cultures.

LD-50 = conditions: in vivo
[4] = tested on: human breast adenocarcinoma MDA-468 cell; test: Growth and viability of breast adenocarcinoma MDA-468 cells; assay type: cell-based; conditions: 50 μM
Description: These floating cells were not viable. Within 48 h of treatment there was greater than 90% decrease in cell number.

[5] = tested on: many different cancer cell lines; test: Cytotoxicity in cancer cell lines in vitro; conditions: uM concentrations
LTA4 hydrolase = LTA4 hydrolase (Homo sapiens, UniProt P09960); conditions: cited from earlier work
[6] = tested on: Human Foreskin (HF) cells infected with HSV-2-strain G; assay type: cell-based

Sequence of LTA4 hydrolase (P09960 whole entry): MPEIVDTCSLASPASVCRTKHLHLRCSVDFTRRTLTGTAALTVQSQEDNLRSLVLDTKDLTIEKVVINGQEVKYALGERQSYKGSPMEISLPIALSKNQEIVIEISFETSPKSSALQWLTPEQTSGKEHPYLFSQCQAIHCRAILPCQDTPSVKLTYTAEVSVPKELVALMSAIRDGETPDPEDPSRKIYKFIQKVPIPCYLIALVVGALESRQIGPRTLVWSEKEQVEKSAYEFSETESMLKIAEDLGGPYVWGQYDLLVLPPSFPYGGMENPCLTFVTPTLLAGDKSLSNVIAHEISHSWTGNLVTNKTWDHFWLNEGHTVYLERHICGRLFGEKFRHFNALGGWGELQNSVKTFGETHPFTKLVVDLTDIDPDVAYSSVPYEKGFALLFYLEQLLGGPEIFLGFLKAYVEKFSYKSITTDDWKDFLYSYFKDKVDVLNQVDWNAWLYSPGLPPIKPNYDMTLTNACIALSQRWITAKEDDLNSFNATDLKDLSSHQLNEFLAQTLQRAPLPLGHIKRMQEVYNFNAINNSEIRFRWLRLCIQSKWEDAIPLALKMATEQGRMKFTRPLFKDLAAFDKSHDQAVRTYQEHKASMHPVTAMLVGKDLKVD

SMILES: CCCCc1csc(C(=O)NN)c1Cl
- times more active than 2-thiophenecarboxylic acid (virally infected cells): 7-10 times
- times more active than 2-thiophenecarboxylic acid [1]: 7-10 times

SMILES: O=C(O)c1ccco1 [2-Furoic acid]
- toxic effects on the cells (CHO cells [2]): no significant toxic effects
- time within which growth was inhibited in a dose-dependent fashion (CHO cells [3]; CHO cells, 3 to 10 mM): ≤ 24 h
- inhibition at 3000 µM (CHO cells [3]; 72 h): ~20%
- inhibition at 10000 µM (CHO cells [3]; 72 h): ~40%

SMILES: NNC(=O)c1cccs1 [2-TCAH, 2-thiophenecarboxylic acid hydrazide]
- toxic effects on the cells (CHO cells [2]): significant toxic effects
- time within which growth was inhibited in a dose-dependent fashion (CHO cells [3]; CHO cells): ≤ 24 h
- inhibition at 1000 µM (CHO cells [3]; 72 h): ~65%
- inhibition at 10000 µM (CHO cells [3]; 72 h): ~90%

SMILES: O=C(O)c1cccs1 [2-TH acid, 2-thiophenecarboxylic acid]
- LD-50 (LD-50): 30 grams/70 Kg

SMILES: O=C(O)c1oc(Cl)c(Cl)c1Cl [3,4,5-TFA, 3,4,5-Trichloro-2-Furoic acid]
- cytotoxicity and cell death, share of CHO cells (CHO cells [2]; Chinese hamster, 3 mM): greater than 99%
- time within which growth was strongly inhibited (CHO cells [3]; CHO cells): ≤ 12 h
- inhibition at 1000 µM (CHO cells [3]): > 80%
- inhibition at 3000 µM (CHO cells [3]): > 99%

SMILES: NN.O=C(O)c1sc(Cl)c(Cl)c1Cl [3,4,5-TTAH]
- cytotoxicity and cell death, share of CHO cells (CHO cells [2]; 500 uM, 24-72 hours exposure): greater than 95%
- detached cells destroyed by the agent (CHO cells [2]; 500 uM, 72 h, trypan blue dye exclusion test): > 99.9%
- growth of CHO cells (CHO cells [3]; 500 uM): strongly inhibited

SMILES: O=C(O)c1sc(Cl)c(Cl)c1Cl [3,4,5-TTA]
- time within which growth was strongly inhibited (CHO cells [3]; CHO cells): ≤ 6 h
- inhibition at 1000 µM (CHO cells [3]): > 98%
- inhibition at 3000 µM (CHO cells [3]): 100%

SMILES: CCCCc1csc(C(=O)NN)c1 [4-B-2-TAH, 4-butyl-2-Thiophenecarboxylic Acid Hydrazide]
- cell number ([4]; after 12 hours of treatment): no further increase in cell number
- decrease in cell number ([4]; within 48 h of treatment): greater than 90%
- cytotoxic effects [5]: pronounced cytotoxic effects

SMILES: C[C@H](CS)C(=O)N1CCC[C@H]1C(=O)O [Captopril]
- inhibition of LTA4 hydrolase, concentration range (LTA4 hydrolase): low uM range

SMILES: c1ccsc1 [Thiophene, reference compound]
- effect on cell growth (CHO cells [3]; CHO cells, analog tested at 0.05 to 10 mM, up to 72 h): no significant effect on cell growth

SMILES: O=C(O)c1ccccn1 [picolinic acid]
- effect on infected cells [6]: cause apoptosis of HF infected cells
